Data: paper PMC9229919, “4-Aminoquinoline-Based Adamantanes as Potential Anticholinesterase Agents in Symptomatic Treatment of Alzheimer’s Disease” (Pharmaceutics, 2022)
Like-named read-outs stand apart in the source and are kept apart here.

Experiments:
[1] = Ferric reducing antioxidant power (FRAP) assay; details: mean ± standard error of three experiments;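 also: expressed as µM Fe2+ equivalents from an FeSO4·7H2O standard curve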
Summary of the method: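 Compounds at 10 and 100 µM were mixed with FRAP reagent (300 mM acetate buffer pH 3.6, TPTZ in HCl, FeCl3, 10:1:1) and incubated 60 min at 37 °C. Fe^2+-TPTZ formation read at 593 nm against a blank. Values derived from an Fe2SO4·7H2O standard curve, three independent experiments.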

[2] = Reverse-phase thin-layer chromatographic lipophilicity (RF, RM0); assay type: physicochemical; details: for RM0: intercept of RM = RM0 + bC; for b: slope of RM = RM0 + bC; for RF, Methanol/Water/Hydrochloric acid (conc.), mobile phase I / RF, Dioxane/Water/Hydrochloric acid (conc.), mobile phase II / RF, Methanol/Water/Hydrochloric acid (conc.), mobile phase II / RF, Acetone/Water/Hydrochloric acid (conc.), mobile phase III / RF, Dioxane/Water/Hydrochloric acid (conc.), mobile phase III / RF, Methanol/Water/Hydrochloric acid (conc.), mobile phase III / RF, Dioxane/Water/Hydrochloric acid (conc.), mobile phase IV / RF, Acetone/Water/Hydrochloric acid (conc.), mobile phase IV / RF, Methanol/Water/Hydrochloric acid (conc.), mobile phase IV / RF, Acetone/Water/Hydrochloric acid (conc.), mobile phase IX / RF, Methanol/Water/Hydrochloric acid (conc.), mobile phase IX / RF, Dioxane/Water/Hydrochloric acid (conc.), mobile phase V / RF, Acetone/Water/Hydrochloric acid (conc.), mobile phase V / RF, Methanol/Water/Hydrochloric acid (conc.), mobile phase V / RF, Dioxane/Water/Hydrochloric acid (conc.), mobile phase VI / RF, Acetone/Water/Hydrochloric acid (conc.), mobile phase VI / RF, Methanol/Water/Hydrochloric acid (conc.), mobile phase VI / RF, Acetone/Water/Hydrochloric acid (conc.), mobile phase VII / RF, Methanol/Water/Hydrochloric acid (conc.), mobile phase VII / RF, Acetone/Water/Hydrochloric acid (conc.), mobile phase VIII / RF, Methanol/Water/Hydrochloric acid (conc.), mobile phase VIII: RP-18 silica; for RF, Methanol/Water/Hydrochloric acid (conc.), mobile phase I: I = 90%MeOH/5%H2O/5%HCl; for RF, Dioxane/Water/Hydrochloric acid (conc.), mobile phase II: II = 80%Dioxane/15%H2O/5%HCl; for RF, Methanol/Water/Hydrochloric acid (conc.), mobile phase II: II = 85%MeOH/10%H2O/5%HCl; for RF, Acetone/Water/Hydrochloric acid (conc.), mobile phase III: III = 70%AC/25%H2O/5%HCl; for RF, Dioxane/Water/Hydrochloric acid (conc.), mobile phase III: III = 70%Dioxane/25%H2O/5%HCl; for RF, Methanol/Water/Hydrochloric acid (conc.), mobile phase III: III = 80%MeOH/15%H2O/5%HCl; for RF, Dioxane/Water/Hydrochloric acid (conc.), mobile phase IV: IV = 60%Dioxane/35%H2O/5%HCl; for RF, Acetone/Water/Hydrochloric acid (conc.), mobile phase IV: IV = 65%AC/30%H2O/5%HCl; for RF, Methanol/Water/Hydrochloric acid (conc.), mobile phase IV: IV = 75%MeOH/20%H2O/5%HCl; for RF, Acetone/Water/Hydrochloric acid (conc.), mobile phase IX: IX = 40%AC/55%H2O/5%HCl; for RF, Methanol/Water/Hydrochloric acid (conc.), mobile phase IX: IX = 50%MeOH/45%H2O/5%HCl; for RF, Dioxane/Water/Hydrochloric acid (conc.), mobile phase V: V = 50%Dioxane/45%H2O/5%HCl; for RF, Acetone/Water/Hydrochloric acid (conc.), mobile phase V: V = 60%AC/35%H2O/5%HCl; for RF, Methanol/Water/Hydrochloric acid (conc.), mobile phase V: V = 70%MeOH/25%H2O/5%HCl; for RF, Dioxane/Water/Hydrochloric acid (conc.), mobile phase VI: VI = 40%Dioxane/55%H2O/5%HCl; for RF, Acetone/Water/Hydrochloric acid (conc.), mobile phase VI: VI = 55%AC/40%H2O/5%HCl; for RF, Methanol/Water/Hydrochloric acid (conc.), mobile phase VI: VI = 65%MeOH/30%H2O/5%HCl; for RF, Acetone/Water/Hydrochloric acid (conc.), mobile phase VII: VII = 50%AC/45%H2O/5%HCl; for RF, Methanol/Water/Hydrochloric acid (conc.), mobile phase VII: VII = 60%MeOH/35%H2O/5%HCl; for RF, Acetone/Water/Hydrochloric acid (conc.), mobile phase VIII: VIII = 45%AC/50%H2O/5%HCl; for RF, Methanol/Water/Hydrochloric acid (conc.), mobile phase VIII: VIII = 55%MeOH/40%H2O/5%HCl
Summary of the method: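 Reverse-phase TLC using mobile phases of methanol, acetone or dioxane with water and hydrochloric acid. Methanol varied in 10% steps; development distance 4.5 cm, ambient temperature (22±2 °C). RF measured and RM0 derived from retention.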

recombinant human AChE = molecular target: T1, recombinant human AChE (Homo sapiens, UniProt P22303); test: biochemical; assay type: biochemical
T1 construct: gift of Dr Florian Nachon (Armed Forces Biomedical Research Institute, Brétigny-sur-Orge, France)
Summary of the method: (§1)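 Modified Ellman assay with acetylthiocholine and DTNB in 0.1 M sodium phosphate pH 7.4 (enzymes diluted with 0.1% BSA), ≤0.2% DMSO, 25 °C. At least three inhibitor concentrations per substrate level; Ki,app from Hunter–Downs equation, Ki from y-intercept and inhibition type from Ki,app vs [S].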

purified human BChE = molecular target: T2, purified human BChE (Homo sapiens, UniProt P06276); test: biochemical; assay type: biochemical
T2 construct: possibly also a gift of Dr Florian Nachon (the sentence is ambiguous)
Summary of the method: as §1

[3] = Acetone/Water/Hydrochloric acid (conc.)
[4] = Dioxane/Water/Hydrochloric acid (conc.)
[5] = Methanol/Water/Hydrochloric acid (conc.)
[6] = log (Ki/µM AChE), read-out: Y Measured 1 log(ki)Ache (converted)
[7] = ± standard error, 25 °C, ATCh substrate, read-out: Ki AChE
[8] = logarithm of Ki in µM, BChE, dependent variable of the QSAR model, read-out: Y Measured 2 log(ki)Bche, log (Ki/µM BChE) (converted)
[9] = ± standard error, 25 °C, ATCh substrate, read-out: Ki BChE

T2 sequence (P06276 29-602): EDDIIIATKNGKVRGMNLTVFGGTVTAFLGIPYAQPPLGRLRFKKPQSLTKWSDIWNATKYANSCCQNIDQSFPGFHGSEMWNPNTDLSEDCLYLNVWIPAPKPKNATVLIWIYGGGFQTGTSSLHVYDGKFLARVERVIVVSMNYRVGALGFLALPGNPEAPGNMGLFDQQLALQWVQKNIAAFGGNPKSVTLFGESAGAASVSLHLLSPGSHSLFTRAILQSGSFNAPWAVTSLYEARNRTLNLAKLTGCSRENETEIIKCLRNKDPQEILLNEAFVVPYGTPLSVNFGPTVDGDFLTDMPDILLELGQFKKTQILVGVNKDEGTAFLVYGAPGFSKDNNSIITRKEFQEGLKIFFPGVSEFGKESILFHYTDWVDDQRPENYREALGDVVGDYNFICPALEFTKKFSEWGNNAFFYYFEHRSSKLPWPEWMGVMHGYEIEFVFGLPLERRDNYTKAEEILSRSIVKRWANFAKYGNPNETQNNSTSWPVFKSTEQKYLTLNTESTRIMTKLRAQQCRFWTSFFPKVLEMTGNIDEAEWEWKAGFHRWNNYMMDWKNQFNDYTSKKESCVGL
T1 sequence (P22303 32-614): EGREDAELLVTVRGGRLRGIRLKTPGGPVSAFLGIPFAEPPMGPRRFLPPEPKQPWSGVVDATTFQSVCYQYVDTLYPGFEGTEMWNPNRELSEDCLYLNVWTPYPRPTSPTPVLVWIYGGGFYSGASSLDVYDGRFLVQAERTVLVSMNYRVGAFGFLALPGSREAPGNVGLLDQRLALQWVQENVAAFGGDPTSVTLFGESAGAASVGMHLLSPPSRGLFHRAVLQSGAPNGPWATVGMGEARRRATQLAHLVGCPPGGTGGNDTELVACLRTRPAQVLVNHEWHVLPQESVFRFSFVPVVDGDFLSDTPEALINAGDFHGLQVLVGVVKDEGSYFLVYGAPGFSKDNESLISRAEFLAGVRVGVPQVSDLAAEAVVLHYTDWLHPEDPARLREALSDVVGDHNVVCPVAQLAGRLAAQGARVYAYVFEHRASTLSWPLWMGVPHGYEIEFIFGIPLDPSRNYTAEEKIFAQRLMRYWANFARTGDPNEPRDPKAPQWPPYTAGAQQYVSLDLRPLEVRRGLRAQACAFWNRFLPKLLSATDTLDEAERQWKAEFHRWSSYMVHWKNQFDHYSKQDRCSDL

Compound	FRAP ([1]; 10 µM compound) [µM]	FRAP ([1]; 100 µM compound) [µM]	RM0 [2, 3]	b [2, 3]	RM0 [2, 4]	b [2, 4]	RM0 [2, 5]	b [2, 5]	RF, Methanol/Water/Hydrochloric acid (conc.), mobile phase I [2]	RF, Dioxane/Water/Hydrochloric acid (conc.), mobile phase II [2]	RF, Methanol/Water/Hydrochloric acid (conc.), mobile phase II [2]	RF, Acetone/Water/Hydrochloric acid (conc.), mobile phase III [2]	RF, Dioxane/Water/Hydrochloric acid (conc.), mobile phase III [2]	RF, Methanol/Water/Hydrochloric acid (conc.), mobile phase III [2]	RF, Dioxane/Water/Hydrochloric acid (conc.), mobile phase IV [2]	RF, Acetone/Water/Hydrochloric acid (conc.), mobile phase IV [2]	RF, Methanol/Water/Hydrochloric acid (conc.), mobile phase IV [2]	RF, Acetone/Water/Hydrochloric acid (conc.), mobile phase IX [2]	RF, Methanol/Water/Hydrochloric acid (conc.), mobile phase IX [2]	RF, Dioxane/Water/Hydrochloric acid (conc.), mobile phase V [2]	also measured
FC(F)(F)c1ccc2c(NCCNCC34CC5CC(CC(C5)C3)C4)ccnc2c1 [Compound 6]	4.6 ± 0.8	25 ± 6	2.0143	3.169	0.9723	1.909	2.421	3.208	0.73	0.74	0.67	0.57	0.7	0.51	0.7	0.53	0.53	0.11	0.11	0.49	RF, Acetone/Water/Hydrochloric acid (conc.), mobile phase V [2]: 0.45; RF, Methanol/Water/Hydrochloric acid (conc.), mobile phase V [2]: 0.44; RF, Dioxane/Water/Hydrochloric acid (conc.), mobile phase VI [2]: 0.33; RF, Acetone/Water/Hydrochloric acid (conc.), mobile phase VI [2]: 0.36; RF, Methanol/Water/Hydrochloric acid (conc.), mobile phase VI [2]: 0.39; RF, Acetone/Water/Hydrochloric acid (conc.), mobile phase VII [2]: 0.32; RF, Methanol/Water/Hydrochloric acid (conc.), mobile phase VII [2]: 0.23; RF, Acetone/Water/Hydrochloric acid (conc.), mobile phase VIII [2]: 0.24; RF, Methanol/Water/Hydrochloric acid (conc.), mobile phase VIII [2]: 0.18; IS (recombinant human AChE; IS = Ki(BChE)/Ki(AChE), IS > 1 selective to AChE): 2.9; Ki (recombinant human AChE; [6]): 1.2 µM; Ki (recombinant human AChE; [7]): 1.2 ± 0.1 µM; Ki (purified human BChE; [8]): 3.5 µM; Ki (purified human BChE; [9]): 3.5 ± 0.3 µM
CC(CCNCC12CC3CC(CC(C3)C1)C2)Nc1ccnc2cc(C(F)(F)F)ccc12 (stereo not shown) [Compound 13]	19 ± 7	64 ± 5	2.073	3.206	0.9361	1.847	2.626	3.42	0.72	0.73	0.66	0.56	0.7	0.5	0.7	0.52	0.49	0.1	0.09	0.5	RF, Acetone/Water/Hydrochloric acid (conc.), mobile phase V [2]: 0.4; RF, Methanol/Water/Hydrochloric acid (conc.), mobile phase V [2]: 0.42; RF, Dioxane/Water/Hydrochloric acid (conc.), mobile phase VI [2]: 0.33; RF, Acetone/Water/Hydrochloric acid (conc.), mobile phase VI [2]: 0.34; RF, Methanol/Water/Hydrochloric acid (conc.), mobile phase VI [2]: 0.34; RF, Acetone/Water/Hydrochloric acid (conc.), mobile phase VII [2]: 0.3; RF, Methanol/Water/Hydrochloric acid (conc.), mobile phase VII [2]: 0.22; RF, Acetone/Water/Hydrochloric acid (conc.), mobile phase VIII [2]: 0.23; RF, Methanol/Water/Hydrochloric acid (conc.), mobile phase VIII [2]: 0.14; Ki (recombinant human AChE; [6]): 0.91 µM; Ki (recombinant human AChE; [7]): 0.91 ± 0.05 µM; Ki (purified human BChE; [8]): 1.4 µM; Ki (purified human BChE; [9]): 1.8 ± 0.3 µM
